Measurements taken from US20050119283A1, “Treatment of circadian rhythm disorders with NPY Y5 receptor antagonist” (Pfizer Inc, priority 2003, published 2005).
Values joined by “and” are separate entries in the source; they are usually repeats but may differ in a detail not shown here. Equal entries are not always repeated.

What was measured:
[1] = test system: neuronal firing in hamster SCN slices; assay: NMDA-induced phase advances of neuronal firing in hamster SCN slices maintained in vitro; type: cell-based; conditions: for Phase shift: mean ± S.E.M.; for reversal of the effect of NPY on NMDA-induced phase advances, % of the NMDA alone experiment: antagonist 10 μM with NMDA 100 μM + NPY 2 ng/ml, in vitro
Protocol: Brain slices containing the SCN were taken on a nominally “preparatory day”. During the subsequent night, at 3-3.5 hours before the scheduled onset of light, drugs were administered to the bath. Neuronal recordings were made beginning early the next day, nominally the “experimental day”, and continued until the peak firing rate could be established. A shift in this peak to an earlier point in time is referred to as a “phase advance”.
Phase advances were measured in vitro by sampling spontaneous activity from neurons in a brain slice preparation of the suprachiasmatic nucleus, herein abbreviated SCN, that is known to contain the circadian clock. The term “brain slice preparation”, as used herein, is defined as a cut section of brain that is placed in a plastic chamber and kept fully functioning by providing it with ACSF (artificial cerebrospinal fluid) that has been warmed and infused with oxygen. Recordings of the spontaneous activity of neurons in the SCN brain slice preparation follow a 24-hour pattern of activity that marks the circadian rhythm. Following application of N-methyl-D-aspartate (NMDA), a compound that mediates the phase advances elicited by light in vivo, neurons in the SCN shift their pattern of firing in vitro to reflect a phase advance. Application of NPY blocks the phase advances elicited by NMDA; NPY Y5 antagonists of formula Ia and IIa block these effects of NPY.
Animals and tissue preparation. Male golden hamsters (LVG, Charles River, 40-60 days old) were housed under a light:dark schedule of 14 hours of constant light and 10 hours of constant dark, with food and water available ad libitum. Hamsters were administered an overdose of halothane anesthesia and decapitated during the subjective day. Hypothalamic slices (500 μm) containing the suprachiasmatic nucleus (SCN) were placed in a gas-fluid interface slice chamber (Medical Systems BSC with Haas top), continuously bathed (1 ml/min) in artificial cerebrospinal fluid (ACSF) containing 125.2 mM NaCl, 3.8 mM KCl, 1.2 mM KH2PO4, 1.8 mM CaCl2, 1 mM MgSO4, 24.8 mM NaHCO3, 10 mM glucose. ACSF (pH 7.4) was supplemented with an antibiotic (gentamicin, 50 mg/l) and a fungicide (amphotericin, 2 mg/l) and maintained at 34.5° C. Warm, humidified 95% oxygen:5% carbon dioxide was continuously provided to the slice preparation.
Electrophysiological studies. Extracellular single unit activity of SCN cells was detected with glass micropipette electrodes filled with ACSF, advanced through the slice using a hydraulic microdrive. The signal was further amplified and filtered, and was continuously monitored by an oscilloscope and audio monitor. Firing rate was analyzed using data acquisition software and a customized program for calculation of descriptive statistics. The term “firing rate”, as used herein, is defined as the rate at which the neurons produce an action potential during the period of recording and is indicative of their level of functioning. Firing rates in the range of 1 to 10 Hz are typical for SCN neurons. A number of experiments in each condition were recorded “blind” where the person recording data had no knowledge of the treatment. One slice was recorded from each animal. A total number of 42 slices was recorded.
Data analysis. Data were initially grouped into 1 h bins and an analysis of variance test was used to determine if any bins differed from the others. If the analysis of variance test indicated significant differences, data were smoothed using 1 h running means with a 15-minute lag. The time of the middle of the 1 h bin with the highest mean firing rate after processing by this smoother was taken as the time of peak firing rate for that slice. Phase advances of individual slices were measured relative to the average time of peak firing of control slices. Significant differences between groups (p<0.05) were determined by ANOVA followed by Bonferroni method (for all vs control comparisons). Means are reported±standard error. […]

[2] = test system: hamster wheel running activity; assay: Light-induced phase advances of hamster wheel running activity (in vivo); conditions: for Phase shift: mean ± S.E.M.
Text: The in vivo experimental design included recording a behavioral overt rhythm such as running-wheel activity and exposing the animals to an amount of light that is known to produce a phase advance in this pattern of activity. The term “running-wheel activity”, as used herein, is defined as physical activity measured as revolutions of a wheel permanently positioned in the animals' cages and rotated as the animals run in them. The onset of such behavior is a well regarded marker of timing in circadian rhythms. Application of NPY through a cannula aimed directly into the SCN blocks the ability of light to produce a phase advance; NPY Y5 antagonists of formula IIa block these effects of NPY. Furthermore, when given in the absence of NPY, NPY Y5 antagonists of formula IIa enhance the ability of light to produce phase advances.
Surgery. For in vivo treatment, hamsters (80-100 g) were deeply anesthetized with nembutal (80 mg/kg, i.p.), administered an analgesic (buprenorphine, 0.05 mg/kg, s.c.) and mounted in a stereotaxic instrument in order to rigidly fix the skull. They were surgically implanted with a 25 gauge stainless steel guide cannula aimed at the SCN. After a week of recovery under LD 14:10 (14 hours of light, 10 hours of dark), animals were individually transferred to cages (48×27×20 cm) equipped with wheels. Wheel running activity was recorded with ClockLab hardware and software (Actimetrics, Evanston, Ill.).
Drugs and routes of administration. Animals were briefly anesthetized in order to minimize the stress induced by restraint during cannula injections with a mixture of oxygen and isoflurane administered by means of a gas anesthesia machine (2.5% isoflurane to induce anesthesia, 1.5% to maintain anesthesia through a nose-mask). NPY (0.2 μL, 234 μM) was dissolved in ACSF and administered through a cannula with a 1 μL Hamilton syringe connected with polyethylene tubing to a 13.1 mm stainless steel injector cannula (30 gauge). NPY Y5 receptor antagonist (0.6 ml, 10 mg/kg) was dissolved in 32% 2-hydroxypropyl-B-cyclodextrin, and injected s.c. 30 minutes before NPY and/or light stimulation. Light pulses (5 min, 150 lux) were delivered individually by placing animals under two white fluorescent tubes (Phillips, model F30T12); the timing of the light pulses was selected to be in the animals' dark period, 3.5 hours before lights would normally come on.
Animals were allowed at least 10 days under LD (14 hours of light, 10 hours of dark) in order to establish a stable rhythm, and then housed under constant dim red light (DRL) provided by a safelight lamp (Coastar, Inc. <1 lux). Two sets of experiments comprising five treatments were delivered in a counterbalanced design: NPY alone, NPY+light; light alone, light+NPY Y5 antagonist, NPY+NPY Y5 antagonist+light. After two treatments (only one of them involving light stimulation), animals were resynchronized to the previous LD cycle for 7-10 days, and then exposed again to dim red light for the second set of treatments.
Data analysis. For in vivo experiments, data were automatically collected and analyzed with Clocklab software bundle (ActiMetrics Software, Evanston, Ill.). Two investigators blind to the treatment analyzed phase advance magnitudes. Statistical analyses were performed by means of ANOVA followed by Student-Newman-Keul's test.
Phase advances (h) were calculated as the difference in the onset of running behavior in animals kept in dim red light relative to those exposed to combination of light and/or drug treatments. Means±S.E.M. for N=7-12. • a. Light alone experiment in which the animals are exposed to light 3 hours before the scheduled beginning of the animals' period of normal light. There is a resulting phase advance of 1.33 hours. • b. Formula IIa+light experiment in which the animals are pretreated with NPY Y5 antagonist of formula IIa and then exposed to light 3 hours before the scheduled beginning of the animals' period of normal light. […]

[3] = substance alone, bath application 3.5 hours before scheduled light, NPY 2 ng/ml, NMDA 100 μM, antagonist 10 μM 60 min, N=2-6
[4] = substance + light pulse, Formula IIa 10 mg/kg s.c. 30 minutes prior to light, NPY 0.2 μL via cannula
[5] = substance alone, no light, Formula IIa 10 mg/kg s.c., NPY 0.2 μL via cannula to SCN, N=7-12
[6] = NMDA 100 μM + NPY 2 ng/ml + antagonist 10 μM, 60 minute bath application
[7] = Formula IIa 10 mg/kg s.c. + NPY via cannula + light

Row | Molecule | Phase shift [1, 3] | blockade of the phase advance compared to the light alone experiment ([2]; NPY via cannula + light) | Phase shift [2, 4] [h] | effect on the phase of wheel running activity ([2]; substance alone, no light) | Phase shift [2, 5] [h] | blockade of the NMDA-induced phase advance by NPY ([1]; NMDA 100 μM + NPY 2 ng/ml) | Phase shift ([1]; NMDA 100 μM + NPY 2 ng/ml) [h] | effect on the phase of neuronal firing compared to the control experiment ([1]; substance alone) | Phase shift [1, 6] [h] | reversal of the effect of NPY on NMDA-induced phase advances, % of the NMDA alone experiment [1] | reversal of the effect of NPY on NMDA-induced phase advances, % of the NMDA alone experiment ([1]; listed as formula Ia) [%] | enhancement of the light-induced phase advance, % of the light alone experiment ([2]; Formula IIa 10 mg/kg s.c. 30 minutes prior to light, absence of NPY) [%] | reversal of the effects of NPY on light-induced phase advances, % of the light alone experiment [2, 7] | reversal of the effects of NPY on light-induced phase advances, % of the light alone experiment ([2]; Formula IIa 10 mg/kg s.c. + NPY via cannula + light, listed as formula IIa) [%] | Phase shift [2, 7] [h] | Phase shift ([2]; Formula IIa 10 mg/kg s.c. + NPY via cannula, no light) [h] | effect on the phase of wheel running activity ([2]; formula IIa 10 mg/kg s.c. + NPY, no light) | reversal of the effect of NPY on NMDA-induced phase advances, % of the NMDA alone experiment ([1]; listed as formula IIa) [%]
1 | CN[C@H](CC(=O)O)C(=O)O [NMDA, N-methyl-D-aspartate, reference compound] | 2.89 h and 2.89 ± 0.08 h | – | – | – | – | – | – | – | – | – | – | – | – | – | – | – | – | –
2 | Neuropeptide Y [NPY, reference compound] | -0.18 ± 0.17 h | complete blockade | -0.03 ± 0.20 | no effect | -0.04 ± 0.11 | complete blockade | -0.07 ± 0.09 | no effect | – | – | – | – | – | – | – | – | – | –
3 | O=C1OC2(CCN(C(=O)Nc3ccc(C(F)(F)F)cn3)CC2)c2ccccc21 [Formula Ia] | 0.32 ± 0.35 h | – | – | – | – | – | – | no effect | 2.03 ± 0.88 | about 70% | 70 | – | – | – | – | – | – | –
4 | O=C1OC2(CCN(c3nc4cc(C(F)(F)F)ccc4[nH]3)CC2)c2ccccc21 [Formula IIa] | 0.07 ± 0.07 h | – | 2.11 ± 0.16 | no effect | -0.12 ± 0.04 | – | – | no effect | 2.73 ± 0.16 | about 95% | – | 160 | about 90% | 89 | 1.18 ± 0.27 | -0.20 ± 0.07 | no effect | 95
